Publication PMC3365113, “Exploiting Ligand-Protein Conjugates to Monitor Ligand-Receptor Interactions” (PLoS ONE, 2012)

What was measured:
SNAP-eDHFR WT [1] = biological target: T1, SNAP-eDHFR WT (Escherichia coli, UniProt P0ABQ4); assay: biochemical; type: binding
SNAP-eDHFR L54G = SNAP-eDHFR L54G (Escherichia coli, UniProt P0ABQ4, L54G); assay: biochemical; type: binding
SNAP-eDHFR L54I = SNAP-eDHFR L54I (Escherichia coli, UniProt P0ABQ4, L54I); assay: biochemical; type: binding
SNAP-eDHFR WT [2] = biological target: T1, SNAP-eDHFR WT; assay: biochemical
PDE6D = biological target: T2, PDE6D (Homo sapiens, UniProt O43924); assay: Cell imaging assay in fixed U2OS cells; type: binding; settings: 100 nM atorvastatin-SNAP-EGFP
T2 construct: expressed in transfected cells; host or cells: U2OS
From the text: (§1) Finally, we developed a binding assay applicable to fixed cells. Such an assay is desirable if the protein to be analyzed is insoluble or unstable in extracts. In this assay (Figure 1B, 7A), the epitope-tagged receptor protein is over-expressed in mammalian cells by transient transfection. The cells are fixed with paraformaldehyde and permeabilized with nonionic detergent. The expression of the receptor protein is then confirmed by visualization with the anti-epitope tag antibody conjugated with a fluorophore using immunofluorescence microscopy. In parallel, the ligand-protein interaction is examined with the aid of BG-derivatized ligand conjugated to EGFP via SNAP-tag. […] We evaluated the generality of this method using other previously validated drug-protein interactions (PDE6D-atorvastatin, PTK2B-purvalanol B, and FYN-dasatinib). Binding of all three pairs was detected with this method (Figure S3).
(§2) Supplementary file pone.0037598.s003.tif: Figure S3 Cell imaging assay using validated drug-receptor pairs. (A) U2OS cells were transfected with a plasmid which express V5 tagged PDE6D. One day after transfection, cells were fixed with 4% paraformaldehyde, and permeabilized with 0.1% Tritin X-100. After washing, the cells were incubated with anti-V5-antibody conjugated with FITC or 100 nM atorvastatin-SNAP-EGFP. Fluorescence images (GFP filter) were taken within 30 min after washing of the cells. (B) (C) Cell imaging assay using pairs of purvalanol B-PTK2B and dasatinib-FYN, respectively. (TIF) Click here for additional data file.

FYN = biological target: T3, FYN (Homo sapiens, UniProt P06241); assay: Cell imaging assay in fixed U2OS cells; type: binding; settings: ligand as SNAP-EGFP conjugate
T3 construct: expressed in transfected cells; host or cells: U2OS
From the text: as §1, §2

SNAP-ORP7 = biological target: T4, SNAP-ORP7 (Homo sapiens, UniProt Q9BZF2); type: binding; settings: HEK293 cell extract, free erlotinib 10 µM
T4 construct: strep-tag (N); made in house; host or cells: HEK293 (suspension HEK-293E), transient transfection, Strep-tactin purified
T4 sequence (Q9BZF2 1-842): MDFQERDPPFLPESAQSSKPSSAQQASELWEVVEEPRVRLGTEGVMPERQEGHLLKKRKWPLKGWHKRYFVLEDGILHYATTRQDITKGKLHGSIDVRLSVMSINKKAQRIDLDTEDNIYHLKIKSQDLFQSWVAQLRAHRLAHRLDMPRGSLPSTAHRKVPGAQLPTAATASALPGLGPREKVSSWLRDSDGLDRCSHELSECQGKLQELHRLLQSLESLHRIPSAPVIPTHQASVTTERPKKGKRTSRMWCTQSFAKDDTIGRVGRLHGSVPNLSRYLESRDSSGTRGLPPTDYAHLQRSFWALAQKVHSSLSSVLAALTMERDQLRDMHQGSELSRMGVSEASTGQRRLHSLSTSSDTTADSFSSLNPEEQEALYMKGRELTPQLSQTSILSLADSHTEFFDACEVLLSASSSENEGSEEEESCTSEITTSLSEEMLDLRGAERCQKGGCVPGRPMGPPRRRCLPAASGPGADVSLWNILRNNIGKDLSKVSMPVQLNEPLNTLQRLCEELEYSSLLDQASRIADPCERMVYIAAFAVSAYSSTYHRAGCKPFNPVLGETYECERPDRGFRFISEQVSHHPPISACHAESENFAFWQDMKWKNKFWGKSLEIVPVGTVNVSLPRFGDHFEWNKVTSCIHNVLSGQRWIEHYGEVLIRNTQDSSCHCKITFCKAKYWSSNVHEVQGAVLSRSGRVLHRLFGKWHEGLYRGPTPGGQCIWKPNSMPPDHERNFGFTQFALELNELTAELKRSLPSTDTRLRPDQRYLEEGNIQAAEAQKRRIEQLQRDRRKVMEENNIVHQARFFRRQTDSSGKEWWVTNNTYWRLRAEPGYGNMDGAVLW

PTK2B = biological target: T5, PTK2B (Homo sapiens, UniProt Q14289); assay: Cell imaging assay in fixed U2OS cells; type: binding; settings: ligand as SNAP-EGFP conjugate
T5 construct: expressed in transfected cells; host or cells: U2OS
From the text: as §1, §2

[3] = test system: eDHFR (every eDHFR mutant); assay: SNAP-based TR-FRET competition assay using MTX and MTX-BG as competitors; type: binding, Escherichia coli; settings: MTX-BG vs MTX, 100 µM NADPH

Q: For `COc1cc(NCc2ccc3nc(N)nc(N)c3c2C)cc(OC)c1OC` [Trimetrexate, trimetrexate], which Kd (SNAP-eDHFR WT [1]) is on record?
A: 0.15 ± 0.01 nM

Q: And the Kd (SNAP-eDHFR L54G)?
A: 0.64 ± 0.04 nM

Q: And the Kd (SNAP-eDHFR L54I)?
A: 0.1 ± 0.01 nM

Q: And the IC50 (SNAP-eDHFR WT [2])?
A: 0.27 ± 0.03 nM

Q: With `CC1(C)N=C(N)N=C(N)N1OCCCOc1cc(Cl)c(Cl)cc1Cl` [WR99210] as the compound, how does the Kd (SNAP-eDHFR WT [1]) read?
A: 12000 ± 950 nM

Q: And the Kd (SNAP-eDHFR L54G)?
A: 15000 ± 790 nM

Q: What about the Kd (SNAP-eDHFR L54I) of the same compound?
A: 2600 ± 210 nM

Q: And the IC50 (SNAP-eDHFR WT [2])?
A: 54000 ± 16000 nM

Q: For `CC(C)c1c(C(=O)Nc2ccccc2)c(-c2ccccc2)c(-c2ccc(F)cc2)n1CC[C@@H](O)C[C@@H](O)CC(=O)O` [atorvastatin], which “Binding detected by cell imaging, PDE6D” value (PDE6D) is on record?
A: detected

Q: How did the “Binding detected by cell imaging, FYN” value (FYN) turn out when `Cc1nc(Nc2ncc(C(=O)Nc3c(C)cccc3Cl)s2)cc(N2CCN(CCO)CC2)n1` [dasatinib] was run?
A: detected

Q: Which “Effect of free ligand on hetero-crosslinking product band” value (SNAP-ORP7) does the source give for `C#Cc1cccc(Nc2ncnc3cc(OCCOC)c(OCCOC)cc23)c1` [erlotinib] here?
A: no longer detected

Q: `CC(C)[C@H](CO)Nc1nc(Nc2ccc(C(=O)O)c(Cl)c2)c2ncn(C(C)C)c2n1` [purvalanol B] was tested. Which “Binding detected by cell imaging, PTK2B” value (PTK2B) did it give?
A: detected

Q: methotrexate-BG [MTX-BG] was tested. Which “Change of Kd values by derivatization of MTX with BG” value [3] did it give?
A: about 10 fold
